Assay results from patent US20030157186A1, “Method for maintaining or improving the synthesis of mucins” (priority 2003, published 2003).

Test system: HT29-MTX cells
Test: Fractional synthesis rate of mucoproteins in vitro (3H-threonine incorporation)
Type: cell-based, human
Conditions: for mucoprotein FSR: day 7 to 21, mean±SEM, n=6
Experimental: The effect of threonine supplementation on the mucin synthesis rate was analyzed in vitro in HT29-MTX cells (human colonic carcinoma cells). HT29-MIX cells were grown in normal Dulbecco's modified minimum essential medium (DMEM) supplemented with 10% (v/v) heat-inactivated fetal bovine serum (Life Technologies) and containing 25 mM glucose, 1% non-essential amino acids (Life Technologies), 2 mM glutamine (AJINOMOTO CO), 85 mg/L penicillin-streptomycin, 50 mg/L gentamicin, and 1.5 mg/L Amphotericin B (Life Technologies). Cells were cultured at 37° C. in an atmosphere containing 10% CO2:90% air. The culture medium was changed daily. Experiments were carried out in T75 cm^2 culture flasks between passages 10 to 20. Studies were performed in the late post-confluent period (21 days after seeding), when all cells display a mucin-secreting phenotype. For the experiment, cells were grown in the normal DMEM until confluency (7 days after seeding). Then from day 7 to day 21 after seeding, several concentrations of threonine in the DMEM were tested, namely, 0.2 mM, 0.4 mM, 0.8 mM and 1.6 mM. At day 20, L-(3-^3H) threonine (30 microCi/Flask) was added to a fresh 10 mL culture medium. The incorporation of the radioactive tracer to newly synthesized mucoproteins was determined for the following 24 hour period. After 24 hours of metabolic labeling, the culture medium of cells was removed. […] An aliquot of each homogenate was removed for the measurement of the specific radioactivity of the intracellular free threonine considered as the precursor pool. […] Purified mucins were hydrolyzed with 6M HCl (24 h at 100° C.), and their amino acid composition was determined by HPLC. […] The fractional synthesis rate (FSR) of mucoproteins was calculated and expressed in percent/day (%/d): (FSR=(Specific radioactivity of mucoprotein bound threonine/Specific radioactivity of intracellular free threonine)*100). […] The mucoprotein FSR was determined for each of the varying concentrations of threonine (mM) in the culture medium of HT29-MTX cells as further shown in FIG. 1.

## C[C@@H](O)[C@H](N)C(=O)O [threonine]
0.2 mM threonine in culture medium
  mucoprotein FSR: 26.4±1.4%
0.8 mM threonine in culture medium
  mucoprotein FSR: 37.3±1.4%
0.2 to 1.6 mM tested
  threonine concentration at which mucoprotein FSR reached a plateau: about 0.8 mM
